Assay results from US7625878B2, “Sulfoalkyl ether-alkyl ether cyclodextrin derivatives” (The University of Kansas, priority 2003, dated 2009).

Key:
Assay type in all cases: physicochemical
[1] = binding constant K1:1 of inclusion complex with Nifedipine; details: substrate Nifedipine, value (spread)
Method: (§1) The following tables detail some of the SAE-AE-CD's according to the invention. These products were made according to the examples below. The table indicates the inclusion complexes formed with the indicated drugs and cyclodextrins as well as their corresponding linear binding constants (K1:1) determined at 25° C.
(§2) Excess amount of drug was added to a CD-containing aqueous solution (concentration ranging from 0 to 0.10M). […] The suspension was centrifuged for 5 min. at 3000 rpm (Dynac™ centrifuge, Clay Adams, Parsippany, N.J.). A 20 μL sample was obtained from the supernatant and diluted to 1-5-ml with glass double distilled water.
(§3) The mobile phase(s) was chosen in accordance with the properties of the analyzed drug and its behavior in interacting with the chromatographic support. Suitable exemplary conditions for specific drugs are detailed in the table below.
(§4) The following general procedure was used to determine the extent of inclusion complex formation for an active agent/cyclodextrin derivative combination. The change in absorbance due to inclusion complex formation for a drug was monitored. The change in absorbance value as a function of total ligand concentration at a fixed concentration of substrate was measured. The wavelength for analysis was chosen appropriately depending on the analyzed drug. […]

[2] = binding constant K1:1 of inclusion complex with Clotrimazole; details: substrate Clotrimazole, value (spread)
Method: as §1
(§5) The following general procedure was used to determine the extent of inclusion complex formation for an active agent/cyclodextrin derivative combination. The change in absorbance due to inclusion complex formation for a drug was monitored. The change in absorbance value as a function of total ligand concentration at a fixed concentration of substrate was measured. The wavelength for analysis was chosen appropriately depending on the analyzed drug. The analysis was performed using a Perkin Elmer double beam UV/Vis Lamda 6 instrument equipped with a data manager software and water jacketed multicell attachment. A circulating water bath was used to provide constant temperature during experiments. The data were linearized using the method described by Foster et al.: R. Foster, D. L. Hammich, A. A Wardley (Interaction of Polynitro compounds with Aromatic Hydroquinones and Bases. Part III. A New Method for Determining the Association Constants for Certain Interactions between Nitro Compounds and Bases in Solution. J. Chem. Soc. (1953) 3817-20). […]

[3] = binding constant K1:1 of inclusion complex with Prednisolone; details: substrate Prednisolone, value (spread)
Method: as §1, §5

[4] = binding constant K1:1 of inclusion complex with Nimodipine; details: substrate Nimodipine, value (spread)
Method: as §1, §5

[5] = binding constant K1:1 of inclusion complex with α-Me-Prednisolone; details: substrate α-Me-Prednisolone, value (spread)
Method: as §1, §2, §3, §4

[6] = binding constant K1:1 of inclusion complex with Triamcinolone; details: substrate Triamcinolone, value (spread)
Method: as §1, §5

[7] = binding constant K1:1 of inclusion complex with Nitrendipine; details: substrate Nitrendipine, value (spread)
Method: as §1, §5

[8] = binding constant K1:1 of inclusion complex with Camptothecin; details: substrate Camptothecin, value (spread)
Method: as §1, §2, §3

## OC[C@H]1O[C@@H]2O[C@H]3[C@H](O)[C@@H](O)[C@@H](O[C@H]4[C@H](O)[C@@H](O)[C@@H](O[C@H]5[C@H](O)[C@@H](O)[C@@H](O[C@H]6[C@H](O)[C@@H](O)[C@@H](O[C@H]7[C@H](O)[C@@H](O)[C@@H](O[C@H]8[C@H](O)[C@@H](O)[C@@H](O[C@H]1[C@H](O)[C@H]2O)O[C@@H]8CO)O[C@@H]7CO)O[C@@H]6CO)O[C@@H]5CO)O[C@@H]4CO)O[C@@H]3CO [β-CD, β-cyclodextrin]
[1]
  K1:1 25° C.: 121.9(35)

## OC[C@H]1O[C@@H]2O[C@H]3[C@H](O)[C@@H](O)[C@@H](O[C@H]4[C@H](O)[C@@H](O)[C@@H](O[C@H]5[C@H](O)[C@@H](O)[C@@H](O[C@H]6[C@H](O)[C@@H](O)[C@@H](O[C@H]7[C@H](O)[C@@H](O)[C@@H](O[C@H]8[C@H](O)[C@@H](O)[C@@H](O[C@H]9[C@H](O)[C@@H](O)[C@@H](O[C@H]1[C@H](O)[C@H]2O)O[C@@H]9CO)O[C@@H]8CO)O[C@@H]7CO)O[C@@H]6CO)O[C@@H]5CO)O[C@@H]4CO)O[C@@H]3CO [γ-CD, γ-cyclodextrin]
[2]
  K1:1 25° C.: 1015(30)
[3]
  K1:1 25° C.: 3300.42(21)
[4]
  K1:1 25° C.: 1780(190)
[5]
  K1:1 25° C.: 3038(269)
[6]
  K1:1 25° C.: 9769 (560)
[7]
  K1:1 25° C.: 2508(59)
[8]
  K1:1 25° C.: 73 M⁻¹
[1]
  K1:1 25° C.: 1416.1(162)
